Data from US12202828B2, “Bicyclic heterocycle compounds and their uses in therapy” (ASTEX THERAPEUTICS LIMITED, priority 2013, dated 2025).
Several values for one entry are separate records, joined by “and”; a condition that tells them apart may be missing. Identical values can stand only once. Counter-ions that a name gives are not always drawn.

Key:
[1] = target: T1, XIAP-Caspase-9 in HEK293-XIAP-Caspase-9 cells (Homo sapiens, UniProt P98170); test: HEK293-XIAP-Caspase-9 immunoprecipitation (IP) MSD assay; type: cell-based; conditions: compound 2 h at 37° C.; read-out: HEK293-X-C9 IP
T1 construct: FLAG; expressed in transfected cells
Experimental: Stable HEK293-XIAP-Caspase-9 cells were plated out into 96-well plates [200 μl/well at 1×10^6 cells/mL in cultured complete medium (DMEM+10% FBS+0.5 mg/mL Geneticin (Invitrogen)] and left overnight at 37° C. to recover. Compounds were added to duplicate wells in 0.1% DMSO for 2 h at 37° C. Cells were lysed in 50 μl 1×MSD lysis buffer (1% Triton X-100 in 20 mM Tris·Cl (pH 7.6), 150 mM NaCl including protease inhibitors) for 20 min rocking at room temperature. Streptavidin high bind MSD plate (L15SB-2) were coated with biotinylated anti-FLAG M2 antibody (Sigma F9291) at 25 μl/well with a 5 μg/mL dilution of antibody in PBS for 1 h, shaking; followed by blocking for 1 h with 150 μl 3% BSA/TBST. Cell lysate (25 μl) was added to the 96-well anti-FLAG coated MSD plate and placed on shaker for 4 h at room temperature. […] Plates were washed 4 times with 150 μl TBST, and 150 μl/well 1×MSD read buffer (R92TC-2) added before reading each plate.
EC50 values were determined from dose-response plots using nonlinear least-squares analysis.

[2] = target: T2, hERG ion channel (Homo sapiens, UniProt Q12809); test: Population Patch Clamp (PPC) hERG assay in CHO K1 cells; type: cell-based; conditions: for IC50: CHO K1 cells stably transfected with hERG
T2 construct: expressed in transfected cells; host or cells: CHO K1
Experimental: Inhibition of the hERG channel was measured by automated patch clamp assay in CHO K1 cells, stably transfected with the hERG ion channel. PPC measurements were performed using an IonWorks Quattro instrument (Molecular Devices Corporation, Union City, CA) using a 384 well PatchPlate (Molecular Devices Corporation) with 64 apertures per well. Each concentration of test compound was tested in duplicate wells. Amphotericin B was used to obtain electrical access to the cell interior at a final concentration of 200 μg/mL. Human ether-à-gogo related gene (hERG) currents were measured with a prepulse to +40 mV (2 s) from the holding potential of −80 mV, followed by a step to −50 mV (2 s) to elicit the deactivating tail currents, before returning to the holding potential for 1s. Compounds were incubated for 600s between the pre- and post-compound reads. The external recording solution used was 130 mM Na Gluconate, 20 mM NaCl, 4 mM KCl, 1 mM MgCl2, 1.8 mM CaCl2, 10 mM Hepes, 5 mM Glucose, pH to 7.3 with NaOH. All data were filtered for seal quality, seal drop, and current amplitude. The maximum current amplitude of the 3rd pulse tail current was calculated before (Pre) and after (Post) compound addition and the amount of block assessed by dividing the Post-compound current amplitude by the Pre-compound current amplitude.

T1 sequence (P98170 whole entry): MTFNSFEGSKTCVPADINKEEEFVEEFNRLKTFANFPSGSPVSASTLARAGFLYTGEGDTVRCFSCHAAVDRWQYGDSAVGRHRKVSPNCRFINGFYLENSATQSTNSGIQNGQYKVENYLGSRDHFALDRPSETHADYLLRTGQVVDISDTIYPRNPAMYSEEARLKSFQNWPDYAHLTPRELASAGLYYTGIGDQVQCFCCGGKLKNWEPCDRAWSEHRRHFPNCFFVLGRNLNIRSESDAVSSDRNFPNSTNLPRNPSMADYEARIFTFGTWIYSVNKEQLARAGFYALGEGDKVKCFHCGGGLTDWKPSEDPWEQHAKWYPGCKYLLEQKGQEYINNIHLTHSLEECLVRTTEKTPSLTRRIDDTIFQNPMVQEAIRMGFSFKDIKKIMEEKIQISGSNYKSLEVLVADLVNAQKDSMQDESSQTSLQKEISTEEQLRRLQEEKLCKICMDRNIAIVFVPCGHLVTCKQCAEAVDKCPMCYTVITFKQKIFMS
T2 sequence (Q12809 whole entry): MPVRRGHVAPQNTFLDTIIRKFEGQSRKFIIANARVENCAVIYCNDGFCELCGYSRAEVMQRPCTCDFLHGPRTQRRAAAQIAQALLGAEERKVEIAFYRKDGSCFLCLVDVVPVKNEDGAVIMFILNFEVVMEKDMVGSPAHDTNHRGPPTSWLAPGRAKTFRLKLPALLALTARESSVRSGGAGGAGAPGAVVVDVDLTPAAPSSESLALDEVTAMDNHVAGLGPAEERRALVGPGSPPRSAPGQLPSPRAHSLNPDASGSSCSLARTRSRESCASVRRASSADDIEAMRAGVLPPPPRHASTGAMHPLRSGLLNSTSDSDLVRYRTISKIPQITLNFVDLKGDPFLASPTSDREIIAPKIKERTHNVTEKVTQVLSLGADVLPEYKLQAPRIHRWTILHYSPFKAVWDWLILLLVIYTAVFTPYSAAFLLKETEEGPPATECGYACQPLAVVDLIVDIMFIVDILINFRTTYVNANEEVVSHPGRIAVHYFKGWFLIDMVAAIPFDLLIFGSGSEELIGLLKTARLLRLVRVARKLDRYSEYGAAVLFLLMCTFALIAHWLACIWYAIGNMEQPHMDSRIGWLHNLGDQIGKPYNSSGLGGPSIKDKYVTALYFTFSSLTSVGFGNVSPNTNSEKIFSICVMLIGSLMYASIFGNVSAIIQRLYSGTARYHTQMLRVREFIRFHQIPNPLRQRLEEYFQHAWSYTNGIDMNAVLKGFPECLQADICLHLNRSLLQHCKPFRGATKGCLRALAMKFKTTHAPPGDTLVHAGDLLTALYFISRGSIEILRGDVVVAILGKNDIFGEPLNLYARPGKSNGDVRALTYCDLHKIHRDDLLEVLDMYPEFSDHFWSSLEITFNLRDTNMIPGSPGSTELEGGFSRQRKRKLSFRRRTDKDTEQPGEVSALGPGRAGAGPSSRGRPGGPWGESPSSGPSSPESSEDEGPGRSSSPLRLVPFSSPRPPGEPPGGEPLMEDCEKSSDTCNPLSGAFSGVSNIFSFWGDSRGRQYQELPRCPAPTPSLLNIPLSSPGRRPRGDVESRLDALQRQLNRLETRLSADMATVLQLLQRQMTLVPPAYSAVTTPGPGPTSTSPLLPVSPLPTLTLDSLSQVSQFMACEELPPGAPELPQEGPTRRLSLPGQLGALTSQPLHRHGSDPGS

Compound | EC50 [1] | hERG PPC (PI) ([2]; @ 100 μM) [% @ 100] | further results
C[C@@H]1CN(CC(=O)N2CC(C)(C)c3nc(CO)c(Cc4ccc(F)cc4F)cc32)[C@@H](CN2CCOC[C@H]2C)CN1 [Example 11, 1-{6-[(2,4-Difluorophenyl)methyl]-5-(hydroxymethyl)-3,3-dimethyl-1H,2H,3H-pyrrolo[3,2-b]pyridin-1-yl}-2-[(2R,5R)-5-methyl-2-{[(3R)-3-methylmorpholin-4-yl]methyl}piperazin-1-yl] ethan-1-one dihydrochloride] | 1.1 nM |  | IC50 [2]: 51000 nM
C[C@@H]1CN(CC(=O)N2CC(C)(C)c3c2cc(Cc2ccccc2F)c(=O)n3C)[C@@H](CN2CCOC[C@H]2C)CN1 [Example 9, 6-[(2-Fluorophenyl)methyl]-3,3,4-trimethyl-1-{2-[(2R,5R)-5-methyl-2-{[(3R)-3-methylmorpholin-4-yl]methyl}piperazin-1-yl]acetyl}-1H,2H,3H,4H,5H-pyrrolo[3,2-b]pyridin-5-one dihydrochloride] | 3 nM |  | hERG PPC (PI) ([2]; @ 300 μM): 50% @ 300
C[C@@H]1CN(CC(=O)N2CC(C)(C)c3c2cc(Cc2ccc(F)cc2)c(=O)n3N)[C@@H](CN2CCOC[C@H]2C)CN1 [Example 24, 4-Amino-6-[(4-fluorophenyl)methyl]-3,3-dimethyl-1-{2-[(2R,5R)-5-methyl-2-{[(3R)-3-methylmorpholin-4-yl]methyl}piperazin-1-yl]acetyl}-1H,2H,3H,4H,5H-pyrrolo[3,2-b]pyridin-5-one dihydrochloride] | 0.58 nM and 1.1 nM | 40 | 
C[C@@H]1CN(CC(=O)N2CC(C)(C)c3cc(=O)n(Cc4ccc(F)cc4F)cc32)[C@@H](CN2C[C@H](C)OC[C@H]2C)CN1.Cl.Cl [Example 22, 6-[(2,4-Difluorophenyl)methyl]-1-{2-[(2R,5R)-2-{[(2S,5R)-2,5-dimethylmorpholin-4-yl]methyl}-5-methylpiperazin-1-yl]acetyl}-3,3-dimethyl-1H,2H,3H,5H,6H-pyrrolo[2,3-c]pyridin-5-one dihydrochloride] | 3.9 nM | 47 | 
C[C@@H]1CN(CC(=O)N2CC(C)(C)c3nc(C(O)CO)c(Cc4ccc(F)cc4)cc32)[C@@H](CN2[C@H](C)COC[C@H]2C)CN1 (single isomer, unassigned) [Example 21, 1-[5-((R or S)-1,2-Dihydroxyethyl)-6-[(4-fluorophenyl)methyl]-3,3-dimethyl-1H,2H,3H-pyrrolo[3,2-b]pyridin-1-yl]-2-[(2R,5R)-2-{[(3R,5R)-3,5-dimethylmorpholin-4-yl]methyl}-5-methylpiperazin-1-yl] ethan-1-one dihydrochloride] | 2.1 nM | 35 | 
CCCCc1cc2c(n(C)c1=O)C(C)(C)CN2C(=O)CN1C[C@@H](C)NC[C@@H]1CN1[C@H](C)COC[C@H]1C [Example 33, 6-Butyl-1-{2-[(2R,5R)-2-{[(3R,5R)-3,5-dimethylmorpholin-4-yl]methyl}-5-methylpiperazin-1-yl]acetyl}-3,3,4-trimethyl-1H,2H,3H,4H,5H-pyrrolo[3,2-b]pyridin-5-one dihydrochloride] | 2.4 nM |  | hERG PPC (PI) ([2]; @ 31.3 μM): 33% @ 31.3
C[C@@H]1CN(CC(=O)N2CC(C)(C)c3[nH]c(=O)c(Cc4ccc(F)cc4)cc32)[C@@H](CN2CCOC[C@H]2C)CN1 [Example 5, 6-[(4-Fluorophenyl)methyl]-3,3-dimethyl-1-{2-[(2R,5R)-5-methyl-2-{[(3R)-3-methylmorpholin-4-yl]methyl}piperazin-1-yl]acetyl}-1H,2H,3H,4H,5H-pyrrolo[3,2-b]pyridin-5-one dihydrochloride] | 5.3 nM |  | hERG PPC (PI) ([2]; @ 300 μM): 42% @ 300
C[C@@H]1CN(CC(=O)N2CC(C)(C)c3c2cc(Cc2ccc(F)cc2)c(=O)n3C)[C@@H](CN2CCOC[C@H]2C)CN1 [Example 6, 6-[(4-Fluorophenyl)methyl]-3,3,4-trimethyl-1-{2-[(2R,5R)-5-methyl-2-{[(3R)-3-methylmorpholin-4-yl]methyl}piperazin-1-yl]acetyl}-1H,2H,3H,4H,5H-pyrrolo[3,2-b]pyridin-5-one dihydrochloride] | 2 nM |  | hERG PPC (PI) ([2]; @ 250 μM): 56% @ 250
COC(CO)c1nc2c(cc1Cc1ccc(F)cc1)N(C(=O)CN1C[C@@H](C)NC[C@@H]1CN1CCOC[C@H]1C)CC2(C)C (single isomer, unassigned) [Example 27, 1-{6-[(4-Fluorophenyl)methyl]-5-((R or S)-2-hydroxy-1-methoxyethyl)-3,3-dimethyl-1H,2H,3H-pyrrolo[3,2-b]pyridin-1-yl}-2-[(2R,5R)-5-methyl-2-{[(3R)-3-methylmorpholin-4-yl]methyl}piperazin-1-yl] ethan-1-one trihydrochloride] | 6 nM and 9.9 nM |  | hERG PPC (PI) ([2]; @ 1000 μM): 55% @ 1000
C[C@@H]1CN(CC(=O)N2CC(C)(C)c3c2cc(Cc2ccc(F)cc2F)c(=O)n3C)[C@@H](CN2[C@H](C)COC[C@H]2C)CN1 [Example 12, 6-[(2,4-Difluorophenyl)methyl]-1-{2-[(2R,5R)-2-{[(3R,5R)-3,5-dimethylmorpholin-4-yl]methyl}-5-methylpiperazin-1-yl]acetyl}-3,3,4-trimethyl-1H,2H,3H,4H,5H-pyrrolo [3,2-b]pyridin-5-one dihydrochloride] | 0.69 nM | 41 | 
Cc1c2c(cn(Cc3ccc(F)cc3F)c1=O)N(C(=O)CN1C[C@@H](C)NC[C@@H]1CN1CCOC[C@H]1C)CC2(C)C [Example 31, 6-[(2,4-Difluorophenyl)methyl]-3,3,4-trimethyl-1-{2-[(2R,5R)-5-methyl-2-{[(3R)-3-methylmorpholin-4-yl]methyl}piperazin-1-yl]acetyl}-1H,2H,3H,5H,6H-pyrrolo[2,3-c]pyridin-5-one dihydrochloride] | 0.94 nM and 2.2 nM |  | IC50 [2]: 140000 nM
C[C@@H]1CN(CC(=O)N2CC(C)(C)c3[nH]c(=O)c(Cc4ccc(F)cc4F)cc32)[C@@H](CN2[C@H](C)COC[C@H]2C)CN1 [Example 7, 6-[(2,4-Difluorophenyl)methyl]-1-{2-[(2R,5R)-2-{[(3R,5R)-3,5-dimethylmorpholin-4-yl]methyl}-5-methylpiperazin-1-yl]acetyl}-3,3-dimethyl-1H,2H,3H,4H,5H-pyrrolo[3,2-b]pyridin-5-one dihydrochloride] | 1.2 nM | 33 | 
C[C@@H]1CN(CC(=O)N2CC(C)(C)c3c2cc(Cc2ccc(F)cc2F)c(=O)n3N)[C@@H](CN2CCOC[C@H]2C)CN1.Cl.Cl [Example 23, 4-Amino-6-[(2,4-difluorophenyl)methyl]-3,3-dimethyl-1-{2-[(2R,5R)-5-methyl-2-{[(3R)-3-methylmorpholin-4-yl]methyl}piperazin-1-yl]acetyl}-1H,2H,3H,4H,5H-pyrrolo[3,2-b] pyridin-5-one dihydrochloride] | 0.77 nM | 63 | 
C[C@@H]1CN(CC(=O)N2CC(C)(C)c3cc(=O)n(Cc4ccc(F)cc4F)cc32)[C@@H](CN2[C@H](C)COC[C@H]2C)CN1 [Example 20, 6-[(2,4-Difluorophenyl)methyl]-1-{2-[(2R,5R)-2-{[(3R,5R)-3,5-dimethylmorpholin-4-yl]methyl}-5-methylpiperazin-1-yl]acetyl}-3,3-dimethyl-1H,2H,3H,5H,6H-pyrrolo[2,3-c]pyridin-5-one dihydrochloride] | 6.3 nM | 44 | 
C[C@@H]1CN(CC(=O)N2CC(C)(C)c3c2cc(Cc2ccc(F)cc2)c(=O)n3C)[C@@H](CN2C[C@H](C)OC[C@H]2C)CN1 [Example 18, 1-{2-[(2R,5R)-2-{[(2S,5R)-2,5-Dimethylmorpholin-4-yl]methyl}-5-methylpiperazin-1-yl]acetyl}-6-[(4-fluorophenyl)methyl]-3,3,4-trimethyl-1H,2H,3H,4H,5H-pyrrolo[3,2-b]pyridin-5-one trihydrochloride] | 1.2 nM |  | hERG PPC (PI) ([2]; @ 75 μM): 44% @ 75
C[C@@H]1CN(CC(=O)N2CC(C)(C)c3c2cc(Cc2ccc(F)cc2F)c(=O)n3C)[C@@H](CN2C[C@H](C)OC[C@H]2C)CN1 [Example 25, 6-[(2,4-Difluorophenyl)methyl]-1-{2-[(2R,5R)-2-{[(2S,5R)-2,5-dimethylmorpholin-4-yl]methyl}-5-methylpiperazin-1-yl]acetyl}-3,3,4-trimethyl-1H,2H,3H,4H,5H-pyrrolo[3,2-b]pyridin-5-one dihydrochloride] | 2.7 nM |  | 
